Reference: patent publication US11999697B2, “Methods and compositions for inhibition of dihydroorotate dehydrogenase” (OHIO STATE INNOVATION FOUNDATION, priority 2018, dated 2024)

Test system: primary human AML cells
Test: Flow cytometry staining for differentiation (CD11b/CD14)
Type: cell-based
Conditions: 1 μM, 14 days
Description: Flow cytometry staining for differentiation: Primary AML cells were solubilized from the methocult in the CFU assays. 5e5 cells were stained and analyzed by flow cytometry as follows: Gating on CD45 positive hematopoietic cells; B, T and NK-cells were identified using CD19, CD3 and NK1.1 surface markers; differentiation in the myeloid population was assessed by gating on CD34/CD33 positive myeloid cells and staining for CD11 b and CD14.
FIGS. 5A-5E show representative flow cytometry data for induction of CD11b and CD14 positive cells in primary human AML cells following vehicle treatment, treatment with a representative disclosed compound, Cpd3, or treatment with a reference compound, brequinar (indicated as “BQR” in the figures) using methods as described herein below. Briefly, primary AML cells were treated with vehicle (DMSO), Cpd3 (1 μM) or brequinar (BQR, 1 μM) and plated in methylcellulose for 14 days. Cells were recovered from the methylcellulose and characterized by flow cytometry (gating on CD34/CD33 positive myeloid cells and staining for CD11b and CD14). FIGS. 5A-5C show the percentage of CD11b and CD14 positive cells within the live CD33/CD34 positive population for a representative “responder” sample. FIGS. 5D and 5E show collective data for eight primary AML samples. […]

CCOc1ccc(-c2ccc(-c3cc(C(=O)O)c4cc(F)ccc4n3)cc2)cc1 [Cpd3, 2-(4′-ethoxy-[1,1′-biphenyl]-4-yl)-6-fluoroquinoline-4-carboxylic acid]
induction of CD11b and CD14 positive cells: induces CD11 b and CD14 in primary human AML cells
